Laboratory results: BindingDB's records for doi:10.1016/j.bmcl.2005.07.040 (Universit&#233, 2005)

Molecular target: Sigma non-opioid intracellular receptor 1 (Cavia porcellus)
Assay: Inhibitory concentration against opioid receptor sigma 1 of guinea pig cerebral cortex using [3H](+)-pentazocine upon incubation for 150 minutes at 22 degree C

| SMILES | IC50 |
| --- | --- |
| c1ccc2c(c1)C[C@H]1CN(CCN3CCCCC3)CN1C2 [(S)-2-(2-Piperidin-1-yl-ethyl)-1,2,3,5,10,10a-hexahydro-imidazo[1,5-b]isoquinoline] | 77 nM |
| O=c1n(CCN2CCCCC2)c(O)c2n1CCCC2 [(S)-2-(2-Piperidin-1-yl-ethyl)-tetrahydro-imidazo[1,5-a]pyridine-1,3-dione] | > 1000 nM |

The remaining lines, values ahead:

| IC50 | SMILES |
| --- | --- |
| 6.6 nM | O=c1n(CCN2CCCCC2)c(O)c2n1Cc1ccccc1C2 |
| 54 nM | O=C1N(CCN2CCCCC2)C[C@@H]2Cc3ccccc3CN12 [(S)-2-(2-Piperidin-1-yl-ethyl)-1,5,10,10a-tetrahydro-2H-imidazo[1,5-b]isoquinolin-3-one] |
| 0.9 nM | Oc1c2n(c(=S)n1CCN1CCCCC1)Cc1ccccc1C2 [(S)-2-(2-Piperidin-1-yl-ethyl)-3-thioxo-2,3,10,10a-tetrahydro-5H-imidazo[1,5-b]isoquinolin-1-one] |
